Assay results as given in the supplement of paper PMC10307832.

Columns and labels:
Assay in all cases: relative viability (nuclei count vs DMSO), 5 days (fraction); higher = more cells survive
[1] = compound: COc1cc2c(Oc3ccc4[nH]c(C)cc4c3F)ncnc2cc1OCCCN1CCCC1 [Cediranib] + O=C(CCCCCCC(=O)Nc1ccccc1)NO [Vorinostat] (partner 1 µM)
In short: (§1)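 The day after seeding in 1536-well plates, lung cancer cell lines were treated by pin tool with a single drug, or with a fixed anchor-drug dose together with five library-drug doses (not always all listed) in √10 steps. After 5 days, a combined fix-and-stain solution (final 0.05% Triton X-100, 1% formaldehyde, 1 ug/ml Hoechst) was added. Nuclei counted on 4× images gave relative viability as treated counts over vehicle counts, reported as the median of duplicate plates.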

[2] = compound: O=C(C[C@H]1NCCC[C@@H]1O)Cn1cnc2cc(Br)c(Cl)cc2c1=O (racemic) [Halofuginone] + CC(=O)c1c(C)c2cnc(Nc3ccc(N4CCNCC4)cn3)nc2n(C2CCCC2)c1=O [Palbociclib] (partner 0.5 µM)
In short: as §1

[3] = compound: O=C(C[C@H]1NCCC[C@@H]1O)Cn1cnc2cc(Br)c(Cl)cc2c1=O (racemic) [Halofuginone] + Cc1cc(Nc2cc(N3CCN(C)CC3)nc(Sc3ccc(NC(=O)C4CC4)cc3)n2)n[nH]1 [Tozasertib] (partner 0.1 µM)
In short: as §1

[4] = compound: O=C(C[C@H]1NCCC[C@@H]1O)Cn1cnc2cc(Br)c(Cl)cc2c1=O (racemic) [Halofuginone] + Cc1nc(NC(=O)N2CCC[C@H]2C(N)=O)sc1-c1ccnc(C(C)(C)C(F)(F)F)c1 [Alpelisib] (partner 2 µM)
In short: as §1

| Cell Line | relative viability ([1]; first compound 0.04 µM) | relative viability ([1]; first compound 0.1265 µM) | relative viability ([1]; first compound 0.4 µM) | relative viability ([1]; first compound 1.265 µM) | relative viability ([1]; first compound 4 µM) | relative viability ([2]; first compound 0.001 µM) | relative viability ([2]; first compound 0.003162 µM) | relative viability ([2]; first compound 0.01 µM) | relative viability ([2]; first compound 0.03162 µM) | relative viability ([2]; first compound 0.1 µM) | relative viability ([3]; first compound 0.001 µM) | relative viability ([3]; first compound 0.003162 µM) | relative viability ([3]; first compound 0.01 µM) | relative viability ([3]; first compound 0.03162 µM) | relative viability ([3]; first compound 0.1 µM) | relative viability ([4]; first compound 0.001 µM) | relative viability ([4]; first compound 0.003162 µM) | relative viability ([4]; first compound 0.01 µM) | relative viability ([4]; first compound 0.03162 µM) | relative viability ([4]; first compound 0.1 µM) |
| --- | --- | --- | --- | --- | --- | --- | --- | --- | --- | --- | --- | --- | --- | --- | --- | --- | --- | --- | --- | --- |
| NCI-H2405 | 0.995 | 0.928 | 0.983 | 1.03 | 1.21 | 0.573 | 0.565 | 0.527 | 0.498 | 0.424 | 0.906 | 0.776 | 0.682 | 0.775 | 0.64 | 0.94 | 0.939 | 0.839 | 0.757 | 0.546 |
| NCI-H3122 | 1.02 |  | 0.985 | 1.13 | 1.07 | 0.186 | 0.155 | 0.162 | 0.186 | 0.19 | 0.38 | 0.381 | 0.356 | 0.414 | 0.166 | 0.79 | 0.801 | 0.638 | 0.76 | 0.781 |
| PC-3 [JPC-3] | 0.771 |  | 0.765 | 0.855 | 0.797 | 0.595 | 0.511 | 0.529 | 0.516 | 0.493 | 0.863 | 0.872 | 0.863 | 0.874 | 0.856 | 1.09 | 1.03 | 0.95 | 1.01 | 0.92 |
| PC-14 | 0.831 | 0.755 | 0.744 | 0.801 | 0.451 | 0.509 | 0.597 | 0.514 | 0.17 | 0.0426 | 0.701 | 0.626 | 0.495 | 0.529 | 0.208 | 0.985 | 1.01 | 0.878 | 0.724 | 0.428 |
| RERF-LC-KJ | 0.805 | 0.226 | 0.62 | 0.674 | 0.761 | 1.18 | 0.973 | 1.12 | 1.03 | 0.811 | 0.549 | 0.484 | 0.468 | 0.456 | 0.346 | 0.849 | 1.09 | 0.735 | 0.908 | 0.831 |
| SK-LU-1 | 0.881 | 0.777 | 0.685 | 0.775 | 0.773 | 0.389 | 0.439 | 0.369 | 0.368 | 0.319 | 0.367 | 0.381 | 0.34 | 0.313 | 0.171 | 1.14 | 1.13 | 1.02 | 0.888 | 0.247 |
| SK-MES-1 | 1.17 | 1.04 | 0.966 | 1.05 | 1.21 | 0.341 | 0.33 | 0.323 | 0.257 | 0.186 | 1.03 | 0.926 | 0.754 | 0.647 | 0.168 | 0.952 | 1.32 | 0.853 | 0.832 | 0.522 |
| SW 1573 | 1.03 | 0.532 | 0.991 | 0.582 | 0.806 | 0.422 |  | 0.392 | 0.23 | 0.106 | 0.242 | 0.192 | 0.111 | 0.129 | 0.121 | 0.735 | 0.748 | 0.717 | 0.645 | 0.618 |
